Measurements taken from the NIST ThermoML archive (doi:10.1016/j.jct.2007.05.015).
± gives the expanded uncertainty stated by the source.

Experiments:
[1] = 298.15 K; 101 kPa; Liquid
[2] = xn = mol fraction of the nth substance listed; details: 298.15 K, 101 kPa, Liquid

O=C1CCCN1 [2-pyrrolidinone]
[1]
Details	mass density [kg/m3]	speed of sound [m/s]
–	1107.52 ± 1.4	1633.7 ± 6.4

CC(=O)N(C)C [N,N-dimethylethanamide]
[1]
Details	mass density [kg/m3]	speed of sound [m/s]
–	936.34 ± 1.8	1455.9 ± 5.8

CNC=O [N-methylformamide]
[1]
Details	mass density [kg/m3]	speed of sound [m/s]
–	999.06 ± 0.7	1431.9 ± 3.4

CN1CCCC1=O [N-methylpyrrolidone]
[1]
Details	mass density [kg/m3]	speed of sound [m/s]
–	1028.23 ± 0.88	1531.5 ± 6.1

CN(C)C=O [dimethylformamide]
[1]
Details	mass density [kg/m3]	speed of sound [m/s]
–	943.94 ± 0.85	1457.5 ± 5.8

NC=O [formamide]
[1]
Details	mass density [kg/m3]	speed of sound [m/s]
–	1128.78 ± 1.6	1597.3 ± 3.6

NC=O [formamide] + O
[2]
Details	mass density [kg/m3]	speed of sound [m/s]
x1 = 0.01258	1001.58 ± 0.51	1507 ± 3.4
x1 = 0.01991	1004.13 ± 0.52	1512.2 ± 3.4
x1 = 0.0361	1009.48 ± 0.56	1522.8 ± 3.4
x1 = 0.05028	1013.93 ± 0.59	1530.9 ± 3.4
x1 = 0.06473	1018.25 ± 0.62	1538.3 ± 3.4
x1 = 0.07977	1022.53 ± 0.64	1545.1 ± 3.4
x1 = 0.09437	1026.49 ± 0.67	1551 ± 3.4
x1 = 0.1125	1031.16 ± 0.7	1557.5 ± 3.4
x1 = 0.1347	1036.54 ± 0.74	1564.5 ± 3.4
x1 = 0.1596	1042.19 ± 0.77	1571 ± 3.4
x1 = 0.1946	1049.41 ± 0.82	1578.3 ± 3.5
x1 = 0.2295	1056.08 ± 0.87	1584.1 ± 3.5
x1 = 0.2548	1060.55 ± 0.9	1587.5 ± 3.5
x1 = 0.2731	1063.6 ± 0.92	1589.5 ± 3.5
x1 = 0.2919	1066.61 ± 0.94	1591.4 ± 3.5
x1 = 0.3343	1072.9 ± 0.99	1594.7 ± 3.5
x1 = 0.3711	1077.91 ± 1	1596.7 ± 3.5
x1 = 0.4046	1082.13 ± 1.1	1598.1 ± 3.5
x1 = 0.4552	1088.06 ± 1.1	1599.4 ± 3.5
x1 = 0.4884	1091.6 ± 1.1	1600 ± 3.5
x1 = 0.5025	1093.05 ± 1.1	1600.2 ± 3.5
x1 = 0.5225	1094.97 ± 1.2	1600.3 ± 3.5
x1 = 0.5564	1098.27 ± 1.2	1600.5 ± 3.5
x1 = 0.595	1101.68 ± 1.2	1600.5 ± 3.5
x1 = 0.6298	1104.65 ± 1.3	1600.5 ± 3.5
x1 = 0.6714	1107.95 ± 1.3	1600.2 ± 3.5
x1 = 0.702	1110.28 ± 1.3	1600 ± 3.5
x1 = 0.723	1111.82 ± 1.3	1599.8 ± 3.5
x1 = 0.7544	1113.99 ± 1.4	1599.6 ± 3.5
x1 = 0.78	1115.76 ± 1.4	1599.4 ± 3.6
x1 = 0.8094	1117.67 ± 1.4	1599.1 ± 3.6
x1 = 0.8358	1119.42 ± 1.4	1598.8 ± 3.6
x1 = 0.8752	1121.79 ± 1.4	1598.6 ± 3.6
x1 = 0.917	1124.23 ± 1.5	1598.2 ± 3.6
x1 = 0.9465	1125.98 ± 1.5	1598 ± 3.6
x1 = 0.9702	1127.29 ± 1.5	1597.9 ± 3.6
x1 = 1	1128.78 ± 1.6	1597.3 ± 3.6
